Measurements from patent publication US6231894A, “Treatments based on discovery that nitric oxide synthase is a paraquat diaphorase” (Duke University, priority 1999, dated 2001).

Tests used:
[1] = Therapeutic use of NO-derivatized L-NAME variant; type: in vivo; conditions: nitrite ester variant
From the text: The invention is explained and illustrated by the following background examples and working examples. In the examples the NO-derivatized LNAME is the compound of formula (I) where R^3 is CH3 and R^1 is --(CH2)2 --ONO2. This compound is made by starting with N^ω -nitro-α-(2-hydroxyethyl)-L-arginine made as described above, forming the tert-butyloxycarbonyl derivative, dissolving in methanol, adding […], using non-aqueous trifluoroacetic acid to remove the protecting group and converting to the nitrate ester.

[2] = biological target: T1, Recombinant rat neuronal nitric oxide synthase (NOS1) (Rattus norvegicus, UniProt P29476); experiment: NADPH oxidation (paraquat diaphorase activity) by recombinant rat neuronal nitric oxide synthase; type: biochemical; conditions: NOS inhibitor 1 mM, FIG. 2(a); for effect on paraquat-stimulated NADPH oxidation: 25 μM paraquat; for effect on basal NADPH oxidation: no paraquat
T1 construct: purchased Oxis, Portland, Oreg
Procedure: Recombinant rat neuronal nitric oxide synthase (NOS1, Oxis, Portland, Oreg.), a constitutive enzyme, was used to assay NADPH oxidation in the presence of increasing concentrations of paraquat. Reactions (0.2 ml) were performed in bis-tris propane buffer (40 mM) containing L-arginine (1 mM), CaCl2 (1.2 mM), EDTA (0.9 mM), NADPH (0.35 mM), dithiothreitol (3 mM), tetrahydrobiopterin (4 μM), catalase (1 μg/ml) and calmodulin (200 U/ml) at pH 7.4. Reactions were initiated by the addition of 1.5 U of NOS1, and the oxidation of NADPH was continuously monitored at 340 nm for 1 minute at 37° C. in a plate reader. The rate of NOS-mediated NADPH oxidation was determined using an extinction coefficient of 6.22 mM^-1 cm^-1 after subtracting the baseline of NADPH oxidation.
The experiment of Background Example 1 for NADPH oxidation was carried out in the presence and absence of 25 μM paraquat, without any NOS inhibitor (control), in the presence of L-NAME (1 mM) or in the presence of 1 mM L-NMMA. […] Only L-NAME shut down the NADPH oxidase activity.

[3] = tested on: CPA-47 endothelial cell line; experiment: LDH release from endothelial cells (cytotoxicity); type: cell-based; conditions: increasing inhibitor concentrations with 2 mM paraquat, 24 hours; FIG. 2(b)
Procedure: To test whether the above effect was present in intact cells, endothelial cell cultures, constitutively expressing NOS3 protein as determined by western blot analysis, were treated with 2 mM paraquat in the presence of increasing concentrations of either L-NAME or L-NMMA.
The endothelial cells were obtained as follows: CPA-47 endothelial cell line (CRL-1733) was purchased from American Type Culture Collection (Manassas, Va.). Endothelial cells were grown in T-75 flasks containing Ham's F-12 K medium supplemented by 1 mM […] and 10% equine serum (Gibco-BRL, Grand Island, N.Y.). Endothelial cells were plated at 3.5×10^4 cells/well in 24-well plates and experiments were performed 48 hours later when cells were near confluence. Medium was changed to minimal essential medium without serum supplement. Endothelial cells were from passages 30-36.
Cytotoxicity was measured as the percent release of LDH and compared to vehicl-treated cells (basal). The percent release of cytosolic lactate dehydrogenase (LDH) into the culture medium was used to assess the integrity of the cell membrane. LDH activity was measured by following the loss of NADH at 340 nm as described in Day, B. J., et al., J. Pharmacol. Exp. Ther. 275, 1227-1232 (1995). The percent release of LDH into the culture medium 24 hours after the paraquat treatment was used to assess cell injury.

Rabbit aortic rings [4] = experiment: Acetylcholine-induced (EDRF) relaxation of aortic rings; conditions: Oryctolagus cuniculus; L-NAME (2 mM), acetylcholine, phenylephrine 1 μM; FIG. 3(a); read-out: inhibition of the relaxation response
Procedure: Rabbit aortic rings were treated with increasing concentrations of paraquat or L-NAME (2 mM) prior to initiating a constriction response with 1 μM phenylephrine (initial contraction).
(§1) New Zealand white male rabbits weighting 3-4 kg were anaesthetized with phenobarbital (30 mg/kg/iv). The descending thoracic aorta was isolated and placed in Krebs-Henseleit buffer (pH 7.4) and stored at 4° C. until used. The vessels were cut into 5 mm rings and submerged in 25 ml double jacketed tissue baths containing Krebs-Henseleit buffer bubbled with 95% oxygen and 5% carbon dioxide at 37° C. Rings were hung on stainless steel stirrups connected to calibrated force transducers. Rings were equilibrated with 2 g resting tension for 1 hour before use and contracted with phenylephrine (1 μM). Rings were incubated with paraquat for 15 minutes before acetylcholine-induced or exogenous relaxations were performed.
Endothelial-derived relaxing factor (EDRF) responses were initiated by addition of acetylcholine.

[5] = Working Example I: patient exposed to paraquat; type: in vivo, human; conditions: L-NAME IV 0.1 mg per kilogram per minute
Procedure: A person presents complaining of shortness of breath after working with paraquat. […] An intravenous line is inserted and the patient is started on IV infusion of 0.1 mg per kilogram per minute L-NAME. […] Over the following two days they are weaned off L-NAME.

[6] = Working Example III: stroke patient; type: in vivo, human
From the text: A person presents with confusion and weakness in the left arm. […] The L-NAME is stopped and the patient is given an NO derivatized L-NAME compound at 0.1 milligram per kilogram per minute IV which lowers the blood pressure to 170/100.

[7] = Working Example IX: breast cancer patient with adriamycin toxicity; type: in vivo, human
From the text: A person with metastatic breast cancer receives adriamycin in the standard regimen. […] They are begun on the nitric oxide synthase inhibitor L-NAME 0.5 milligrams per kilogram per minute and their systolic blood pressure is then titrated to 100-120 mm Hg. Over the following two weeks, their ejection fraction improves to 50% and the drug is stopped.

[8] = Working Example X: embolic stroke patient; type: in vivo, human; conditions: 10 mg IV bolus followed by 4.5 mg per kilogram per minute; L-NMMA 30 minutes, L-NAME following day
Procedure: A person with middle cerebral arterial embolic stroke presents to the Emergency Room unconscious. […] After 30 minutes the therapy is stopped and they receive L-NAME at the same dose.

breast cancer = experiment: Working Examples XI and XII: breast cancer patient; type: in vivo, human
Procedure: A person presents with breast cancer and is treated with standard regimen including adriamycin. […] They are given an infusion of a temperature-sensitive liposome encapsulated nitric oxide synthase, which is released in to the tumor by local heat (40-42° centigrate).
The adriamycin infusion in Example X after liposome encapsulated nitric oxide synthase treatment is replaced by 2 mg per day of diquat for six days.

solid tumor = experiment: Working Example VII: solid tumor patient; type: in vivo, human; conditions: treatment for seven days
Procedure: A person is given the anti-tumor agent 5,6 dimethylxanthemone-4-acetic acid (5,6 MEXAA) to treat a solid tumor identified by biopsy on the left lower extremity, and lung. […] At this time, the patient is treated with intravenous infusion of paraquat (4 milligram per kilogram) for seven cycles.

Rabbit aortic rings [9] = experiment: Exogenous NO-induced relaxation of aortic rings; conditions: 2 mM paraquat, phenylephrine 1 μM; FIG. 3(b)
Procedure: as §1
In another case, rabbit aortic rings were constricted with 1 μM phenylephrine (initial contraction) and relaxed with increasing concentration of NO in the presence or absence of 2 mM paraquat. The results are shown in FIG. 3(b) where relaxations are expressed as a percent of the initial phenylephrine-induced contraction.

[10] = tested on: RAW-264.7 monocyte macrophage cells; experiment: LDH release from macrophages (cytotoxicity); type: cell-based; conditions: conclusion of Background Example 4
Procedure: The RAW-264.7 monocyte macrophage cells line (TIB-71) was purchased from the American Type Culture Collection (Manassas, Va.). The cells were grown in T-75 flasks containing DMEM (Gibco-BRL, Grand Island, N.Y.) supplemented with 1 mM pyruvate, 4.5 g/L glucose and […] fetal bovine serum Macrophages were plated at 2.0×10^4 cells/well in 24-well plates and experiments were performed when cells were near confluence. Macrophages were immunostimulated with 50 ng/ml lipopolysaccharide (LPS) from E. coli serotype 0111:B4 (Signia, St. Louis, Mo.) and 50 U/ml recombinant mouse interferon gamma (INF-γ, R&D Systems, Minneapolis,Minn.). Macrophages were used between passages 2-8. Cell cultures were kept in a 37° C. incubator with air and 5% carbon dioxide.
NOS2 was induced in RAW cells using a mixture of interferon-γ and lipopolysaccharide (LPS) referred to as "cytomix." Unstimulated (basal) and activated (cytomix) macrophages were treated with 0.1 mM paraquat or not treated with paraquat and cytotoxicity and NO production were assessed at 24 hours.
Cell injury was assessed by measuring LDH release.
To further exclude the role of peroxynitrite, macrophages were treated with increasing concentrations of the NO-donor, DETA NONOate in the presence of 0.1 mM paraquat. Macrophage cytotoxicity and NO release were assessed 24 hours after treatments. Cell injury was assessed by measuring LDH release.

[11] = Working Example IV: patient with E. Coli bacteremia; type: in vivo, human
Procedure: A person with E. Coli bacteremia presents with a fever of 101° F. and a blood pressure of 70/50. […] The drug is stopped and they are begun on NO-derivatized L-NAME at 0.1 mg/kg/minute. […] Blood pressure rises to 100/80.

[12] = Working Example XIV: congestive heart failure and COPD patient; type: in vivo, human; conditions: 10 milligram per kilogram IV bolus and IV drip 0.5 milligrams per kilograms per minute
From the text: A patient with congestive heart failure and COPD presents acutely short of breath. They are intubated for respiratory failure. […] Their FEV1 is 0.8. The patient has a protracted hospital course and attempts to wean them from the ventilator are unsuccessful. They are then started on 10 milligram per kilogram IV bolus of L-NMMA and an intravenous drip at 0.5 milligrams per kilograms per minute.

[13] = 0.1 milligram per kilogram per minute IV
[14] = 0.1 mg/kg/minute, after L-NMMA stopped

T1 sequence (P29476 whole entry): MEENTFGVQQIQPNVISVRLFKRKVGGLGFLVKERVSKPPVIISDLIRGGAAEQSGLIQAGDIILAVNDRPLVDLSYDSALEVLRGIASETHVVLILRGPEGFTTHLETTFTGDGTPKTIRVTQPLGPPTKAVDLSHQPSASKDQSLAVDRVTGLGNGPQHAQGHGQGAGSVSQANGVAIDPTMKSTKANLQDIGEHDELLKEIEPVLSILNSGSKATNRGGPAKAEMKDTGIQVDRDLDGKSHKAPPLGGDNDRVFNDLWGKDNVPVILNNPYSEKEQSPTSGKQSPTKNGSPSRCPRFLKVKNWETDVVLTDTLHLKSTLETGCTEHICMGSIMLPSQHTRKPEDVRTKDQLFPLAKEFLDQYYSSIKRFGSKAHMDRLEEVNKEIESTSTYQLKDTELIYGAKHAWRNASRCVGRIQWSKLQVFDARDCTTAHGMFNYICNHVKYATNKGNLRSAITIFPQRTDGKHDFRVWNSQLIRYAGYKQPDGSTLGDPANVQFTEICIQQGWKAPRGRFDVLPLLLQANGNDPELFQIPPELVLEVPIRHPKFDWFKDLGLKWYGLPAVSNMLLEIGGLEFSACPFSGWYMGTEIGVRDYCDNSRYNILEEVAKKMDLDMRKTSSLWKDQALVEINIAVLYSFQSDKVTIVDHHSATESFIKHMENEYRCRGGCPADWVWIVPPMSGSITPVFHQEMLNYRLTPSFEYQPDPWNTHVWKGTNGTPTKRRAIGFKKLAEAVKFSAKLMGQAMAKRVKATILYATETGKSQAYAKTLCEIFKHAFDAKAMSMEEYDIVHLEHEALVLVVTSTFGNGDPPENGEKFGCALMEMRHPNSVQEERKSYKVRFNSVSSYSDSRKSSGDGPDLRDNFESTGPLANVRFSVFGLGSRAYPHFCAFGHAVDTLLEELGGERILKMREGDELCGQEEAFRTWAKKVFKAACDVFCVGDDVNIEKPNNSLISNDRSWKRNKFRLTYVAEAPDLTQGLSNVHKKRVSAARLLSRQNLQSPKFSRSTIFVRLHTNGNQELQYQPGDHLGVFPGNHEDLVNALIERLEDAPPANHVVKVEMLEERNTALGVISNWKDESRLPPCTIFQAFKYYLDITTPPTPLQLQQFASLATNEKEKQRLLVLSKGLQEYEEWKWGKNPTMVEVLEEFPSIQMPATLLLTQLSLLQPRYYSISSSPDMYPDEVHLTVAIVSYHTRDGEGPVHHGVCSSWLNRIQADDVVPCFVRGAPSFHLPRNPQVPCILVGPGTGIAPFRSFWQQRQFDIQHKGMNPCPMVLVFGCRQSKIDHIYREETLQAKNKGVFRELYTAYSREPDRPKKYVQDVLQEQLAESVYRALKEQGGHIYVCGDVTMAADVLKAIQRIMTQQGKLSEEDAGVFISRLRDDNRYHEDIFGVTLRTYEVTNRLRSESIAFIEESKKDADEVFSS

**Q.** With COC(=O)[C@@](N)(CCCNC(=N)N[N+](=O)[O-])CCON=O as the compound, how does the therapeutic results [1] read?
**A.** Therapeutic results are also obtained

**Q.** For COC(=O)[C@@H](N)CCCNC(=N)N[N+](=O)[O-] [L-NAME, L-nitroarginine, methyl ester], which “effect on paraquat-stimulated NADPH oxidation” value [2] is on record?
**A.** completely inhibited paraquat-stimulated NADPH oxidation

**Q.** And the “effect on basal NADPH oxidation” value [2]?
**A.** little effect on basal NADPH oxidation

**Q.** What about the “protection from paraquat toxicity (LDH release)” value [3] of the same compound?
**A.** dose-dependent protection from paraquat toxicity

**Q.** And the inhibition at 2000 µM (Rabbit aortic rings [4])?
**A.** > 90%

**Q.** What about the symptoms ([5]; over the day) of the same compound?
**A.** symptoms improve over the day

**Q.** And the “arteriolar PO2” value ([5]; increases from 60, over the day)?
**A.** 85 mm Hg

**Q.** And the symptoms of stroke [6, 13]?
**A.** symptoms do not improve

**Q.** What about the “blood pressure during L-NAME” value ([6]; L-NAME 0.1 milligram per kilogram per minute IV) of the same compound?
**A.** 220/110

**Q.** And the “ejection fraction on L-NAME” value ([7]; 0.5 milligrams per kilogram per minute, two weeks, from 35%)?
**A.** 50%

**Q.** And the improvement / consciousness [8]?
**A.** regains consciousness

**Q.** With c1cc[n+]2c(c1)-c1cccc[n+]1CC2 [diquat] as the compound, how does the tumor regression (breast cancer; diquat 2 mg per day for six days after liposome encapsulated nitric oxide synthase) read?
**A.** The tumor is shown to regress

**Q.** For Cc1ccc2c(=O)c3cccc(CC(=O)O)c3oc2c1C [5,6 MEXAA, 5,6 dimethylxanthemone-4-acetic acid], which “nitric oxide synthase expression in the tumor on biopsy” value (solid tumor) is on record?
**A.** increase in nitric oxide synthase expression in the tumor

**Q.** Which results are given for nitric oxide [NO]?
**A.** effect on exogenously added NO-induced relaxation (Rabbit aortic rings [9]): NO still works in a system where NO is inhibited and superoxide is generated; cell killing / amelioration of toxicity, conclusion [10]: toxicity can be ameliorated by putting NO back into the system

**Q.** Which “effect on paraquat-stimulated NADPH oxidation” value [2] does the source give for CNC(=N)NCCC[C@H](N)C(=O)O [L-NMMA, L-N-methylarginine] here?
**A.** partially blocked paraquat-induced NADPH oxidation

**Q.** And the “effect on basal NADPH oxidation” value [2]?
**A.** small increase in basal NADPH oxidation

**Q.** What about the “protection from paraquat toxicity (LDH release)” value [3] of the same compound?
**A.** not L-NMMA, produced a dose-dependent protection from paraquat toxicity

**Q.** What about the “pulmonary hypertension and cardiac output” value ([11]; L-NMMA infusion 10 mg/kg/hr.) of the same compound?
**A.** profound pulmonary hypertension and a fall in cardiac output

**Q.** What about the improvement / consciousness [8] of the same compound?
**A.** without improvement

**Q.** What about the “weaning from the ventilator” value [12] of the same compound?
**A.** weaned from the ventilator over the following day

**Q.** With COc1cccc2c1C(=O)c1c(O)c3c(c(O)c1C2=O)C[C@@](O)(C(=O)CO)C[C@@H]3O[C@H]1C[C@H](N)[C@H](O)[C@H](C)O1 [adriamycin] as the compound, how does the “adverse effect of adriamycin” value ([7]; standard regimen) read?
**A.** light sensitivity and shortness of breath

**Q.** What about the “ejection fraction after adriamycin” value ([7]; standard regimen, echocardiogram) of the same compound?
**A.** 35%

**Q.** And the tumor regression (breast cancer; adriamycin after temperature-sensitive liposome encapsulated nitric oxide synthase released by local heat, six cycles)?
**A.** the tumor is shown to regress after six cycles of therapy

**Q.** And the “tumor response to adriamycin alone” value (breast cancer; standard regimen including adriamycin)?
**A.** The tumor fails to respond

**Q.** With COC(=O)[C@@](N)(CCCNC(=N)N[N+](=O)[O-])CCO[N+](=O)[O-] [NO-derivatized L-NAME] as the compound, how does the symptoms of stroke [6, 13] read?
**A.** symptoms of confusion abate and motion returns to the arm

**Q.** What about the “blood pressure after switch to NO derivatized L-NAME” value ([6]; 0.1 milligram per kilogram per minute IV, from 220/110) of the same compound?
**A.** 170/100

**Q.** What about the cardiac output [11, 14] of the same compound?
**A.** Cardiac output normalizes

**Q.** And the pulmonary pressure [11, 14]?
**A.** Pulmonary pressure normalizes

**Q.** What about the blood pressure ([11]; 0.1 mg/kg/minute, 70/50 at presentation) of the same compound?
**A.** 100/80
